Measurements taken from patent US9187421B2, “Etomidate analogues that do not inhibit adrenocortical steroid synthesis” (THE GENERAL HOSPITAL CORPORATION, priority 2009, dated 2015).
“Also recorded” adds a separate entry of the source.

How the values were obtained:
rats [1] = assay: Rat hemodynamics (mean blood pressure); settings: IV; for effect on mean blood pressure relative to DMSO vehicle (FIG. 7B): 14 mg/kg carboetomidate, 2 mg/kg etomidate (2×ED50); for effect on mean blood pressure, comparison of three anesthetics (FIG. 7A): twice ED50 for LORR (8 mg/kg propofol, 2 mg/kg etomidate, 14 mg/kg carboetomidate)
Procedure: Femoral arterial catheters, tunneled between the scapulas, were preimplanted by the vendor (Charles River Laboratories). Animals were fully recovered from the placement procedure on arrival.
On the day of study, after weighing and lateral tail vein IV catheter placement, rats were restrained in the acrylic tube with a tail exit port and allowed to acclimate for approximately 10 to 20 min before data collection. […] All data were acquired and analyzed using LabView Software (version 8.5 for Macintosh OS X; National Instruments).
Carboetomidate (40 mg/ml) dissolved in DMSO, etomidate (5.7 mg/ml) dissolved in DMSO, or DMSO vehicle alone as a control was administered through the tail vein catheter followed by approximately 1-ml normal saline flush.
The average mean blood pressure was calculated at each 30-second epoch during this study period.

[2] = tested on: critically ill trauma patients; settings: critically ill trauma patients sedated with etomidate vs. benzodiazepines (28%); Watt and Ledingham 1984; cited from earlier work
humans = settings: literature (Arden et al. 1986); cited from earlier work
rats [3] = assay: Loss of righting reflex in rats after IV bolus; assay type: in vivo, Sprague-Dawley rats; settings: for anesthetic toxicity in rats: highest doses; for slope of duration of anesthesia versus logarithm of anesthetic dose: time to spontaneous righting; for onset time for LORR / onset time for LORR, range: IV, equihypnotic doses 4×ED50 (28 mg/kg carboetomidate, 4 mg/kg etomidate); for time to LORR after IV bolus (in words): doses sufficient to produce LORR
Procedure: Rats: Rats were briefly restrained in a 3-inch diameter, 9-inch long acrylic chamber with a tail exit port. The desired dose of carboetomidate in dimethyl sulfoxide (DMSO; typically at 40 mg/ml) was injected through a lateral tail vein catheter followed by an approximately 1-ml normal saline flush. After injection, rats were removed from the restraint device and turned supine. […] A stopwatch was used to measure the duration of LORR, which was defined as the time from carboetomidate injection until the animal spontaneously righted itself. The ED50 for LORR on bolus administration was determined from the dose dependence of LORR using the method of Waud.26 Onset time for LORR was determined separately by injecting rats with 28 mg/kg of carboetomidate (40 mg/ml in DMSO) or 4 mg/kg of etomidate (5.7 mg/ml in DMSO) through a lateral tail vein catheter followed by an approximately 1-ml normal saline flush. After injection, rats were immediately removed from the restraint device and repeatedly turned supine until they no longer spontaneously righted. The onset time was defined as the time from injection until LORR occurred.
Etomidate or carboetomidate was administered to Sprague Dawley rats as an IV bolus into their tail veins. […] LORR was defined as the time from drug injection until the animal spontaneously righted itself. The ED50 for LORR upon bolus anesthetic administration was determined from the anesthetic dose-dependence of LORR.

Xenopus laevis tadpoles [4] = settings: literature (Husain et al. 2003); cited from earlier work
[5] = biological target: T1, human α1β2γ2L GABAA receptors (Homo sapiens, UniProt P14867+P47870); settings: 4 μM etomidate, inventors' previous study; cited from earlier work
T1 construct: expressed in transfected cells; host or cells: Xenopus laevis oocytes injected with mRNA (subunit ratio 1:1:2)
T1 sequence (P47870 25-512 limits assumed): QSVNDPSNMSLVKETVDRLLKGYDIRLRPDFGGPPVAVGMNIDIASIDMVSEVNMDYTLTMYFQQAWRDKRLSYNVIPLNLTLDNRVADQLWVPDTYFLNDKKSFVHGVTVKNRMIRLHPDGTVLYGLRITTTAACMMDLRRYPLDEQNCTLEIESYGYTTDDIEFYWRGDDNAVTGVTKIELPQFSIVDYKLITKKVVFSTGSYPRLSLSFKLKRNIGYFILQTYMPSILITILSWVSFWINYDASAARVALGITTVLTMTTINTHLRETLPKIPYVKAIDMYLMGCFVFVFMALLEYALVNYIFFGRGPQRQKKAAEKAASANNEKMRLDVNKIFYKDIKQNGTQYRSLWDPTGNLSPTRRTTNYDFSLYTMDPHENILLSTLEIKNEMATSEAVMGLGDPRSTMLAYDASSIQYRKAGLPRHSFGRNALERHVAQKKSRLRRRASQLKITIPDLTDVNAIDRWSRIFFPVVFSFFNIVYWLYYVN
T1 sequence (P14867 28-456): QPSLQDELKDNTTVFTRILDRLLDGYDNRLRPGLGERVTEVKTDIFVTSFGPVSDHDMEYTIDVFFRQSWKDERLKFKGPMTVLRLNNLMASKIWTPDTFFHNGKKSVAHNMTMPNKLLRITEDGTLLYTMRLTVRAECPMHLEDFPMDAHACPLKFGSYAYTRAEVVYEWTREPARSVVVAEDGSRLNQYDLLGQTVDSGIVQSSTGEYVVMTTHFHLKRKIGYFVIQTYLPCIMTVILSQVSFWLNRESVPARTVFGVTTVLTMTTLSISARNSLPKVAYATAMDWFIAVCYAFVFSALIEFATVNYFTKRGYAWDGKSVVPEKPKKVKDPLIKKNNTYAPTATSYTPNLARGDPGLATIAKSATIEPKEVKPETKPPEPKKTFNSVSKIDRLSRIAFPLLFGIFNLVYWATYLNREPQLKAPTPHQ
T1 sequence (P18507 40-475 partner): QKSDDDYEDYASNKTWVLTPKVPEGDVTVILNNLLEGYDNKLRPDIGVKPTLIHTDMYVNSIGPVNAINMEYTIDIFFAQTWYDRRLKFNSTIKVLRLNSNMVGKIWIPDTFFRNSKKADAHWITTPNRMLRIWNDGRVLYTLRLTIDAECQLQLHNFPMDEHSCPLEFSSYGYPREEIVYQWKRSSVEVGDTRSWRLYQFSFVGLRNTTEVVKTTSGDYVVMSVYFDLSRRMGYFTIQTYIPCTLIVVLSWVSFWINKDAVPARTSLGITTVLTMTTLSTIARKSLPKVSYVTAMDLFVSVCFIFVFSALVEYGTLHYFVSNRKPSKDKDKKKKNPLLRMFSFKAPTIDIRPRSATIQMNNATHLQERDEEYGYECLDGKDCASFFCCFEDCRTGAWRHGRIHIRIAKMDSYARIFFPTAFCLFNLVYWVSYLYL

rats [6] = assay: Rat adrenocortical suppression (ACTH1-24-stimulated serum corticosterone); settings: IV bolus 2×ED50 (14 mg/kg carboetomidate, 2 mg/kg etomidate), 15 min after ACTH1-24
Procedure: Immediately after weighing and IV catheter placement, dexamethasone (0.2 mg/kg IV; American Regent, Shirley, N.Y.) was administered to each rat to inhibit endogenous adrenocorticotropic hormone (ACTH) release, to suppress baseline corticosterone production, and to inhibit the variable stress response to restraint and handling. […] The concentrations of carboetomidate and etomidate in DMSO were 40 and 5.7 mg/ml, respectively. Immediately after hypnotic or vehicle administration, ACTH1-24 (25 μg/kg; Sigma-Aldrich Chemical Co, St. Louis, Mo.) was given intravenously to stimulate corticosterone production. Fifteen minutes later, a second blood sample was drawn to measure the ACTH1-24-stimulated serum corticosterone concentration. ACTH1-24 was dissolved in 1 mg/ml of deoxygenated water as stock, aliquoted, and frozen (−20° C.); a fresh aliquot was thawed just before each use. Rats in all three groups (carboetomidate, etomidate, and vehicle) received the same volume of DMSO (350 μl/kg).
Blood samples were allowed to clot at room temperature (10-60 min) before centrifugation at 3,500 g for 5 min. Serum was carefully expressed from any resulting superficial fibrin clot using a clean pipette tip before a second centrifugation at 3,500 g for 5 min. After the second centrifugation, the resultant clot-free serum layer was transferred to a fresh vial for a final, high-speed centrifugation (16,000 g, for 5 min) to pellet any contaminating red blood cells or particulates. The serum was transferred to a clean vial and promptly frozen (−20° C.) pending corticosterone measurement. After thawing and heat inactivation of corticosterone-binding globulins (65° C. for 20 min), serum baseline and ACTH1-24-stimulated corticosterone concentrations were quantified using an enzyme-linked immunosorbent assay (Diagnostic Systems Laboratories, Webster, Tex.) and a 96-well plate reader (Molecular Devices, Sunnyvale, Calif.).
Male Sprague Dawley rats were pre-treated with dexamethasone to inhibit endogenous ACTH production and minimize baseline serum corticosterone concentrations. […]

[7] = biological target: T1, human α1β2γ2L GABAA receptors; assay: GABAA receptor electrophysiology, wild-type receptors in Xenopus oocytes (two-electrode voltage clamp); assay type: cell-based; settings: 10 μM compound
Procedure: Adult female Xenopus laevis frogs were anesthetized with 0.2% tricaine (ethyl-m-aminobenzoate) and hypothermia. Ovary lobes were then excised through a small laparotomy incision and placed in OR-2 solution (82 mM NaCl, 2 mM KCl, 2 mM MgCl2, 5 mM HEPES, pH 7.5) containing collagenase 1A (1 mg/ml) for 3 h to separate oocytes from connective tissue.
Stage 4 and 5 oocytes were injected with messenger RNA encoding the α1, β2 (or β2M286W), and […] subunits of the human GABAA receptor (˜40 ng of messenger RNA total at a subunit ratio of 1:1:2). […]
All electrophysiologic recordings were performed using the whole cell two-electrode voltage-clamp technique. […] Current responses were recorded using Clampex 9.2 software (Axon Instruments) and processed using a Bessel (8-pole) low-pass filter with a cutoff at 50 Hz using Clampfit 9.2 software (Axon Instruments).
For each oocyte, the concentration of GABA that produces 5-10% of the maximal current response (EC5-10 GABA) was determined by measuring the peak current responses evoked by a range of GABA concentrations (in ND-96 buffer) and comparing them with the maximal peak current response evoked by 1 mM GABA. The effect of carboetomidate on EC5-10 GABA-evoked currents was then assessed by first perfusing the oocyte with EC5-10 GABA for 90 s and then measuring the control peak evoked current. […]

[8] = biological target: T2, etomidate-insensitive mutant α1β2M286Wγ2L GABAA receptors (Homo sapiens, UniProt P14867+P47870, M310W); assay: GABAA receptor electrophysiology, etomidate-insensitive mutant receptors in Xenopus oocytes; assay type: cell-based; settings: 10 μM compound
T2 construct: expressed in transfected cells; host or cells: Xenopus laevis oocytes injected with mRNA (subunit ratio 1:1:2)
T2 sequence (P47870 26-512 M310W): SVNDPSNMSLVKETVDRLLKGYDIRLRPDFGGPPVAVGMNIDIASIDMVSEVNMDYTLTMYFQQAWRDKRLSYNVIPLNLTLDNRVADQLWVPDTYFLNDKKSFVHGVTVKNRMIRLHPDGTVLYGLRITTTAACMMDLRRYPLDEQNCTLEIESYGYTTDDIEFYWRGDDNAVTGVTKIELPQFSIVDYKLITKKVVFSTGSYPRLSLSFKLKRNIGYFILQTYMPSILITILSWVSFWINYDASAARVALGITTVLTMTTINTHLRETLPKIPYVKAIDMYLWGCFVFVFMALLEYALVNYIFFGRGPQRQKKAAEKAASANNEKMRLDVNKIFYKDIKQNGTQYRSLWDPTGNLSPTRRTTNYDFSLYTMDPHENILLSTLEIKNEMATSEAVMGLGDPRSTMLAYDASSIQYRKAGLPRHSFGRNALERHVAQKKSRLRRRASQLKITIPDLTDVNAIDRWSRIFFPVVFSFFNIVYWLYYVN
T2 sequence (P14867 28-456): as the sequence (P14867 28-456) above
T2 sequence (P18507 40-475 partner): as the sequence (P18507 40-475 partner) above
Procedure: Stage 4 and 5 oocytes were injected with messenger RNA encoding the α1, β2 (or β2M286W), and γ21 subunits of the human GABAA receptor (˜40 ng of messenger RNA total at a subunit ratio of 1:1:2). This messenger RNA was transcribed from complementary DNA encoding for GABAA receptor α1, β2 (or β2M286W), and γ21 subunits using the mMESSAGE mMACHINE High Yield Capped RNA Transcription Kit (Ambion, Austin, Tex.). Injected oocytes were incubated in ND-96 buffer solution (96 mM NaCl, 2 mM KCl, 1 mM CaCl2, 0.8 mM MgCl2, 10 mM HEPES, pH 7.5) containing 50 U/ml of penicillin and 50 μg/ml of streptomycin at 17° C. for at least 18 h before electrophysiologic experiments.
For each oocyte, the concentration of GABA that produces 5-10% of the maximal current response (EC5-10 GABA) was determined by measuring the peak current responses evoked by a range of GABA concentrations (in ND-96 buffer) and comparing them with the maximal peak current response evoked by 1 mM GABA. […]

Xenopus laevis tadpoles [9] = assay: Tadpole loss of righting reflex (LORR) assay; assay type: in vivo
Procedure: Tadpoles: Groups of five early prelimb-bud stage Xenopus laevis tadpoles were placed in 100 ml of oxygenated water buffered with 2.5 mM Tris HCl buffer (pH. 7.4) and containing a concentration of carboetomidate ranging from 1 to 40[…]. Tadpoles were tipped manually every 5 min with a flame-polished pipette until the response stabilized. […] At the end of each study, tadpoles were returned to fresh water to ensure reversibility of hypnotic action. The EC50 for LORR was determined from the carboetomidate concentration dependence of LORR using the method of Waud D R, J Pharmacol Exp Ther (1972) 183: 577-607, content of which is herein incorporated by reference.
Tadpoles: The tadpole loss of righting reflex assay was used to test for anesthetic activity. Groups of 5 early prelimb-bud stage Xenopus laevis tadpoles were placed in 100 ml of oxygenated water buffered with 2.5 mM Tris HCl buffer (pH=7) and containing a concentration of carboetomidate ranging from 1-40 μM. See Scheme 1, above, for structure of Carboetomidate. Tadpoles were tipped manually every 5 min with a flame polished pipette. […] At all concentrations, this loss of righting reflex response stabilized within 30 min of carboetomidate exposure. At the end of each study, tadpoles were returned to fresh water to ensure reversibility of hypnotic action.

| Compound | effect on mean blood pressure relative to DMSO vehicle (FIG. 7B) (rats [1]) | effect on mean blood pressure, comparison of three anesthetics (FIG. 7A) (rats [1]) | anesthetic toxicity in rats (rats [3]; IV bolus) | slope of duration of anesthesia versus logarithm of anesthetic dose (rats [3]; rats, IV bolus) | onset time for LORR (rats [3]; rats) | onset time for LORR, range (rats [3]; rats) | time to LORR after IV bolus (in words) (rats [3]; rats) | ACTH1-24-stimulated serum corticosterone concentration versus vehicle (in words) (rats [6]) | also measured |
| --- | --- | --- | --- | --- | --- | --- | --- | --- | --- |
| CCOC(=O)c1cncn1C(C)c1ccccc1 (stereo not shown) [etomidate, ethyl 3-(1-phenylethyl)imidazole-4-carboxylate] | significantly reduced mean blood pressure relative to vehicle | magnitude of this decrease was less | no obvious anesthetic toxicity | 27±7 | 4.5 ± 0.6 s | 4 to 5 s | within several seconds | significantly reduced | mortality [2]: 77%; concentration inducing loss of responsiveness in humans (humans): ~2 µM; ED50 (rats [3]; Rattus norvegicus, rats, IV bolus, read-out: ED50 for LORR following bolus administration): 1 ± 0.03 mg/kg; concentration inducing loss of righting reflex in tadpoles (Xenopus laevis tadpoles [4]): ~2 µM; magnitude of potentiation of GABAA receptor currents [5]: 660±240% |
| CC(C)c1cccc(C(C)C)c1O [propofol, reference compound] |  | mean blood pressure decreased |  |  |  |  |  |  |  |
| (R)-1-(1-phenylethyl)-1H-pyrrole-2-carboxylate [carboetomidate] | not significantly greater than that of DMSO vehicle alone | magnitude of this decrease was less; also recorded: depresses blood pressure significantly less than propofol or etomidate | no obvious anesthetic toxicity | 16±4 | 33 ± 22 s | 10 to 63 s | within several seconds | not different from those that had received only vehicle; also recorded: relatively unchanged versus vehicle | enhancement of amplitudes of GABA-evoked currents ([7]; 3 μM GABA, wild-type): 4 fold; enhancement (potentiation) of currents mediated by wild-type receptors ([7]; EC5-10 GABA): 390±80%; ED50 for LORR following bolus administration (rats [3]; rats, IV bolus): 7 ± 2 mg/kg; effect on amplitude of GABA-evoked currents ([8]; 0.3 μM GABA, mutant M286W): little effect; enhancement of currents mediated by etomidate-insensitive mutant receptors ([8]; EC5-10 GABA): −9±16%; toxicity in tadpoles (Xenopus laevis tadpoles [9]; 1-40 μM, recovery in fresh water): No evidence of toxicity was observed; EC50 (Xenopus laevis tadpoles [9]; LORR, Xenopus laevis tadpoles, quantal method of Waud, read-out: anesthetic EC50 (concentration at which 50% of tadpoles were anesthetized)): 5.4 ± 0.5 µM; time for LORR response to stabilize (Xenopus laevis tadpoles [9]; all concentrations (1-40 μM)): ≤ 30 min; fraction of tadpoles anesthetized (Xenopus laevis tadpoles [9]; highest concentrations, 10-40 μM): all tadpoles were anesthetized |
